For this experiment, the target named is T1, RPS6KB1 (p70S6K) (Homo sapiens, UniProt P23443).
T1 construct: purchased Thermo Fisher Scientific (Life Technologies) SelectScreen
Description: SelectScreen Z'LYTE. Type of experiment: biochemical. The procedure, abridged:
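Percent values come from Thermo SelectScreen profiling of NU5455, combining activity and binding assays. CSF1R was run in Z'LYTE format at Km app ATP, and CAMK1 in Adapta format with ATP listed at 10.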

Each structure is given as a SMILES string.

T1 sequence (P23443 whole entry): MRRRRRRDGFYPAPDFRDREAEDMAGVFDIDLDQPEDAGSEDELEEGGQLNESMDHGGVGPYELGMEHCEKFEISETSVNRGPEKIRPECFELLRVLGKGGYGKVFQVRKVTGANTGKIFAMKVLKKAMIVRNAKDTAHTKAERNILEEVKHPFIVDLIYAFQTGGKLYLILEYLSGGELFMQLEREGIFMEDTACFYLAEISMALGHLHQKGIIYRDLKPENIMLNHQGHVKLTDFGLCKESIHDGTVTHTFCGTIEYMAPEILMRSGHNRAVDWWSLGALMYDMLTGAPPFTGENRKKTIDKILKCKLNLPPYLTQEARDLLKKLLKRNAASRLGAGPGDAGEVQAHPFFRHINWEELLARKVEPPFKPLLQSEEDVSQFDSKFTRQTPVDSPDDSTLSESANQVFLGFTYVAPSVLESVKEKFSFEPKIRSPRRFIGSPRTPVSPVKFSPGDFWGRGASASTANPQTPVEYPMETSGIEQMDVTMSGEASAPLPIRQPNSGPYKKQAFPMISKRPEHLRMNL

The inhibition is the change of the read-out against control, counted positive when it falls. In the case of `CN(C(=O)CN1CCOCC1)c1ccc2sc3c(-c4cccc5c(=O)cc(N6CC7CCC(C6)O7)oc45)cccc3c2c1` [NU5455], the inhibition at 1 µM is -7.8%.
